Test results: patent publication US5276023A, “19-nor-steroid esters” (Roussel Uclaf, priority 1989, dated 1994)

Tests used:
[1] = target: T1, Androgen receptor (Rattus norvegicus, UniProt P15207); experiment: relative bond affinity for the androgen receptor of rat's prostate; format: binding; conditions: tritiated testosterone, RBA=100 (CH)/(CX), reference cold testosterone; for relative bond affinity (RBA), Androgen 0,5H: half an hour incubation at 0° C.; for relative bond affinity (RBA), Androgen: incubation at 0° C.
T1 construct: The prostates were removed, weighed and homogenized; from tissue; host or cells: prostate cytosol (105,000 g supernatant) of castrated male rats
T1 sequence (P15207 1-902): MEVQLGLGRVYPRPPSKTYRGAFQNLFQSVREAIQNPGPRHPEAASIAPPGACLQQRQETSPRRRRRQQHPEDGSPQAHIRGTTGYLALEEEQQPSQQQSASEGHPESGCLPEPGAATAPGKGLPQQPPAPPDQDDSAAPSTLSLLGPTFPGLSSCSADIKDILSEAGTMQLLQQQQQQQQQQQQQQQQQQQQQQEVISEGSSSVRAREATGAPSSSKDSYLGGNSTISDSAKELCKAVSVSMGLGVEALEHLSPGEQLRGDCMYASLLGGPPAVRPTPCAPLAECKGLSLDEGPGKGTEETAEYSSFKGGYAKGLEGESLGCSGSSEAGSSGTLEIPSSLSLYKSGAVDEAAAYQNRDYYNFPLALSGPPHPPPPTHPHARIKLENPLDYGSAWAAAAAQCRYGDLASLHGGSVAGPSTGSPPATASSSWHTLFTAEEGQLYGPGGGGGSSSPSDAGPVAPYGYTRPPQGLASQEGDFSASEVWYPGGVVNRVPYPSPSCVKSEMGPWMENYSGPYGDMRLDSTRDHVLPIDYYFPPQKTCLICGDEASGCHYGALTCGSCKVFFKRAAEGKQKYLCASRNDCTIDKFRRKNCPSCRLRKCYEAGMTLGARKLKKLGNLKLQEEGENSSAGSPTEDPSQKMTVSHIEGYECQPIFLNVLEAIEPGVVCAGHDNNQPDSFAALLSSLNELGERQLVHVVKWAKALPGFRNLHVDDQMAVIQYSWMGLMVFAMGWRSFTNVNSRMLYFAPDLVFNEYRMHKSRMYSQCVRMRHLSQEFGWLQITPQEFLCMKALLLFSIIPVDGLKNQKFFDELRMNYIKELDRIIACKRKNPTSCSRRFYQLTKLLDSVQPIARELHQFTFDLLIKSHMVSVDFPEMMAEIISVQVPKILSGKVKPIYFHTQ
Procedure: (§1) 1) Measurement of the relative bond affinity for the receptors of steroid hormones:
Androgen receptor of rat's prostate
Male rats weighing 160 to 200 g were castrated and 24 hours after the castration, the animals were killed. The prostates were removed, weighed and homogenized at 0° C. using a Potter teflon-flask in a (TSDPM) 10 mM Tris, 0.25M saccharose, […] phenylmethanesulfonylfluoride, 20 mM molybdate, 2 mM dithiothreitol, HCl pH 7.4 buffer (1 g of tissue per 5 ml of TSDPM). The homogenate was ultracentrifuged (105,000 g×60 mn) at 0° C. and aliquots of the supernatant "cytosol", were incubated at 0° C. with a constant concentration in the presence of increasing concentrations (0-1000 nM) of cold testosterone or of the product under test. […]
(§2) Calculation of the relative bond affinity:
(§3) The calculation of the relative bond affinity (RBA) was identical for all receptors. The following two curves were drawn: the percentage of bonded tritiated hormone B/T as a function of the logarithm of the concentration of the cold reference hormone and B/T as a function of the logarithm of the concentration of the cold product under test. The straight line of the equation:
(§4) B max=Percentage of bonded tritiated hormone for an incubation of this tritiated hormone at the concentration (T).
(§5) B min=Percentage of bonded tritiated hormone for an incubation of this tritiated hormone at the concentration (T) in the presence of a great excess of cold hormone (2500×10^-9 M).
(§6) The intersections of the straight line I50 and the curves allowed the evaluation of the concentrations of the cold reference hormone (CH) and of the cold product under test (CX) which inhibited by 50% the bonding of the tritiated hormone on the receptor. The relative bond affinity (RBA) of the product under test was determined by the equation RBA=100 (CH)/(CX)

[2] = target: T2, Progesterone receptor (Oryctolagus cuniculus, UniProt P06186); experiment: relative bond affinity for the progesterone receptor of rabbit's uterus; format: binding; conditions: for relative bond affinity (RBA), Progesterone 2H: 2 hours incubation at 0° C.; for relative bond affinity (RBA), Progesterone 2H / relative bond affinity (RBA), Progesterone 24H: tritiated R 5020 5 nM, RBA=100 (CH)/(CX), reference cold progesterone; for relative bond affinity (RBA), Progesterone 24H: 24 hours incubation at 0° C.; for antiprogesterone activity: conclusion in words from the receptor binding study
T2 construct: from tissue; host or cells: uterus cytosol (105,000 g supernatant) of impuberal female rabbits treated with estradiol
T2 sequence (P06186 1-930): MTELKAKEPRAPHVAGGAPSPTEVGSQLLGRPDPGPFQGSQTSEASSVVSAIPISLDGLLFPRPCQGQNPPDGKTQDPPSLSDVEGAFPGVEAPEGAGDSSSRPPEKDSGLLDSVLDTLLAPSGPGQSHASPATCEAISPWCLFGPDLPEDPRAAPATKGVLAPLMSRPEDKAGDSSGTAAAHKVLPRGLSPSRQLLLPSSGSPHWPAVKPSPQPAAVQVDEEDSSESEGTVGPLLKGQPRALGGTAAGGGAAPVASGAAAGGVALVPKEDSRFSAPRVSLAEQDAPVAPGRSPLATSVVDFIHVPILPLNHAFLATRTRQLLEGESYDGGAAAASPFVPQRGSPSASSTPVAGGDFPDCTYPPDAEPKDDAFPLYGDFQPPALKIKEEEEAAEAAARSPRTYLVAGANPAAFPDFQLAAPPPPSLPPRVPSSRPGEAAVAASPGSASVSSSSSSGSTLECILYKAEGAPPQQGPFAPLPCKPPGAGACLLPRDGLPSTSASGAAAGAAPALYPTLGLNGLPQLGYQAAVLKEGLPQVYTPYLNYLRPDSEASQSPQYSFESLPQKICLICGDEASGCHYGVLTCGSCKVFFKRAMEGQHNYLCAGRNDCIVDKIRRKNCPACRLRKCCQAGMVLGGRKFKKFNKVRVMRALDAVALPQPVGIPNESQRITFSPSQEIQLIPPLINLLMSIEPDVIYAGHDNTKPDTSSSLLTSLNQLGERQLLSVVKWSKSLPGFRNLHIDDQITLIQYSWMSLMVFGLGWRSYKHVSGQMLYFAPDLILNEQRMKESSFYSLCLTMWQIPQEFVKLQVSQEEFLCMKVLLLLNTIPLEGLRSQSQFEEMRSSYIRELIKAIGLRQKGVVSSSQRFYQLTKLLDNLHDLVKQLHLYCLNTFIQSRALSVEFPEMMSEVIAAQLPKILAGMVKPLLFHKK
Procedure: as §1
Progesterone receptor of rabbit's uterus:
Impuberal female rabbits weighing about 1 kg received a cutaneous application of 25 ug of estradiol and five days after this treatment, the animals were killed and the uteruses were removed, weighed and homogenized at 0° C. using a Potter teflon-flask in a (TS) 10 mM Tris, 0.25M saccharose, HCl pH 7.4 buffer (1 g of tissue per 50 ml of TS). The homogenate was then ultra-centrifuged (105,000 g×90 mn) at 0° C. […] The concentration of bonded tritiated R 5020 (B) was then measured in each incubate by the technique of adsorption with carbon-dextran.
as §2, §3, §4, §5, §6

SMILES	relative bond affinity (RBA), Androgen 0,5H [1]	relative bond affinity (RBA), Androgen [1]	relative bond affinity (RBA), Progesterone 2H [2]	relative bond affinity (RBA), Progesterone 24H [2]	relative bond affinity (RBA), Androgen 0,5H ([1]; listed as EX. 5)	relative bond affinity (RBA), Androgen ([1]; listed as EX. 5)	relative bond affinity (RBA), Progesterone 24H ([2]; listed as EX. 5)	relative bond affinity (RBA), Androgen 0,5H ([1]; listed as EX. 6)	relative bond affinity (RBA), Androgen ([1]; listed as EX. 6)	relative bond affinity (RBA), Progesterone 24H ([2]; listed as EX. 6)	antiprogesterone activity [2]
CN(C)c1ccc([C@H]2C[C@@]3(C)[C@@H](CC[C@@]3(O)/C=C\COC(=O)CCC(=O)O)[C@@H]3CCC4=CC(=O)CCC4=C32)cc1 [Example 2, Sodium (Z)-3-[11β-[4-dimethylamino-phenyl]-Δ^4,9-estradien-17β-ol-3-one-17α-yl]-2-propenyl succinate]	12	39	21	88							
CN(C)c1ccc([C@H]2C[C@@]3(C)[C@@H](CC[C@@]3(O)C#CCOC(=O)CCC(=O)O)[C@@H]3CCC4=CC(=O)CCC4=C32)cc1 [Example 4, Sodium and 3-[11β-[4-dimethylamino-phenyl]-Δ^4,9-estradien-17β-ol-3-one-17α-yl]-2-propynyl succinate]	5,1	2,8	14	26							
CC#C[C@]1(OC(=O)CCC(=O)O)CC[C@H]2[C@@H]3CCC4=CC(=O)CCC4=C3[C@@H](c3ccc(N(C)C)cc3)C[C@@]21C [Example 5, 11β-[4-dimethylamino-phenyl]-17-(1-propynyl)-Δ^4,9-estradien-3-one-17β-yl acid succinate]			2		0,6	1	8				
CC#C[C@]1(OC(=O)CCC(=O)O)CC[C@H]2[C@@H]3CCC4=CC(=O)CCC4=C3[C@@H](c3ccc(N(C)C)cc3)C[C@@]21C [Example 6, Sodium 11β-[4-dimethylamino-phenyl]17α-(1-propynyl)-Δ^4,9 - estradien-3-one-17β-yl succinate]			2					2,2	4,1	6	
CN(C)c1ccc([C@H]2C[C@@]3(C)[C@@H](CC[C@]3(C#CCl)OC(=O)CCC(=O)O)[C@@H]3CCC4=CC(=O)CCC4=C32)cc1 [Example 10, Sodium and 21-chloro-11β-[4-dimethylamino-phenyl]-19-nor-17α-Δ^4,9-pregnadien-3-one-20-yn-17β-yl succinate]	1,9	8,6	3	13							good
CC#C[C@]1(OC(=O)CCC(=O)O)CC[C@H]2[C@@H]3CCC4=CC(=O)CCC4=C3[C@@H](c3ccc(SC)cc3)C[C@@]21C [Example 12, Sodium and 11β-[4-methylthio-phenyl]-17α-(1-propynyl)-Δ^4,9 estradien-3-one-17β-yl succinate]	0,8	0,3	1,2	3,6							good
